# Measurements reported in patent US20140107100A1, “Benzoxazepines as Inhibitors of PI3K/mTOR and Methods of Their Use and Manufacture” (EXELIXIS, INC., priority 2010, published 2014).
# Biological target: mTOR/GbL/Raptor (mTORC1) (Homo sapiens, UniProt P42345)
# Experiment: mTOR/GbL/Raptor (mTORC1) ELISA assay, phosphorylation of 4E-BP1
# Assay type: biochemical
# Conditions: 0.2 nM mTORC1, 40 uM ATP, 50 nM NHis-tagged 4E-BP1, 120 minutes; read-out: IC50 in this assay (mTORC1 ELISA)
# Protocol: The measurement of mTORC1 enzyme activity was performed in an ELISA assay format following the phosphorylation of 4E-BP1 protein. All experiments were performed in the 384-well format. Generally, 0.5 μL DMSO containing varying concentrations of the test Compound was mixed with 15 μL enzyme solution. Kinase reactions were initiated with the addition of 15 μL of substrates-containing solution. The assay conditions were-as follows; 0.2 nM mTORC1, 40 uM ATPand 50 nM NHis-tagged4E-BP1 in20 mM Hepes, pH 7.2, 1 mM DTT, 50 mMNaC1, 10 mM MnC12, 0.02 mg/mL BSA, 0.01% CHAPS, 50 mM β-glycerophosphate. Following an incubation of 120 minutes at anibient temperature, 20 μL of the reaction volume was transferred to a Ni-Chelate-coated 384-well plate. The binding step of the 4E-BP1 protein proceeded for 60 minutes, followed by washing 4 times each with 50 uL of Tris-buffered saline solution (TBS). Anti-phospho-4E-BPl rabbit-IgG ([…]. 1:5000) in 5% BSA-TBST (0.2% Tween-20 in TBS) was added and further incubated for 60 minutes. Incubation with a secondary HRP-tagged anti-IgG was similarly performed after washing off the primary antibody (4 washes of 50 μL). Following the final wash step with TBST, 20 μL of SuperSignal ELISA Femto (Pierce Biotechnology) was added and the luminescence measured using an En Vision plate reader.
row,IC50 [nM],SMILES
1,≤ 100,"Cc1nc2ccc(-c3cc(C)c4c(c3)CN(c3nc(N)nc(C)c3C(C)C)CCO4)cc2[nH]1 [Compound 2, 4-methyl-5-(1-methylethyl)-6-[9-methyl-7-(2-methyl-1H-benzimidazol-6-yl)-2,3-dihydro-1,4-benzoxazepin-4(5H)-yl]pyrimidin-2-amine]"
2,≤ 100,"Cc1cc(-c2cnc(N)c(S(N)(=O)=O)c2)cc2c1OCCN(c1nc(N)nc(C)c1C(C)C)C2 [Compound 5, 2-amino-5-{4-[2-amino-6-methyl-5-(1-methylethyl)pyrimidin-4-yl]-9-methyl-2,3,4,5-tetrahydro-1,4-benzoxazepin-7-yl}pyridine-3-sulfonamide]"
3,≤ 100,"Cc1cc(-c2cnc3sc(N)nc3c2)cc2c1OCCN(c1nc(N)nc3c1CC(C)(C)CC3)C2 [Compound 10, 4-[7-(2-amino[1,3]thiazolo[5,4-b]pyridin-6-yl)-9-methyl-2,3-dihydro-1,4-benzoxazepin-4(5H)-yl]-6,6-dimethyl-5,6,7,8-tetrahydroquinazolin-2-amine]"
4,≤ 100,"Cc1cc(-c2cnc3sc(N)nc3c2)cc2c1OCCN(c1nc(N)ncc1C(C)C)C2 [Compound 11, 6-{4-[2-amino-5-(1-methylethyl)pyrimidin-4-yl]-9-methyl-2,3,4,5-tetrahydro-1,4-benzoxazepin-7-yl}[1,3]thiazolo[5,4-b]pyridin-2-amine]"
5,≤ 100,"Cc1cc(-c2cnc(Cl)c(NS(C)(=O)=O)c2)cc2c1OCCN(c1nc(N)ncc1C(F)(F)F)C2 [Compound 14, N-(5-{4-[2-amino-5-(trifluoromethyl)pyrimidin-4-yl]-9-methyl-2,3,4,5-tetrahydro-1,4-benzoxazepin-7-yl}-2-chloropyridin-3-yl)methanesulfonamide]"
6,100 to 500,"Cc1cc(-c2cnc(Cl)c(NS(C)(=O)=O)c2)cc2c1OCCN(c1ncc(C(F)(F)F)c(N)n1)C2 [Compound 15, N-(5-{4-[4-amino-5-(trifluoromethyl)pyrimidin-2-yl]-9-methyl-2,3,4,5-tetrahydro-1,4-benzoxazepin-7-yl}-2-chloropyridin-3-yl)methanesulfonamide]"
7,≤ 100,"CNC(=O)c1sc(N2CCOc3c(C)cc(-c4cnc(Cl)c(NS(C)(=O)=O)c4)cc3C2)nc1C(C)C [Compound 22, 2-[7-{6-chloro-5-[(methylsulfonyl)amino]pyridin-3-yl}-9-methyl-2,3-dihydro-1,4-benzoxazepin-4(5H)-yl]-N-methyl-4-(1-methylethyl)-1,3-thiazole-5-carboxamide]"
8,≤ 100,"Cc1cc(-c2cnc3sc(N)nc3c2)cc2c1OCCN(c1ncnc3c1CC(C)(C)C=C3)C2 [Compound 23, 6-[4-(6,6-dimethyl-5,6-dihydroquinoazolin-4-yl)-9-methyl-2,3,4,5-tetrahydro-1,4-benzoxazepin-7-yl][1,3]thiazolo[5,4-b]pyridin-2-amine]"
9,≤ 100,"Cc1cc(-c2cnc(Cl)c(NS(C)(=O)=O)c2)cc2c1OCCN(c1ncc(C#N)c(N)n1)C2 [Compound 28, N-{5-[4-(4-amino-5-cyanopyrimidin-2-yl)-9-methyl-2,3,4,5-tetrahydro-1,4-benzoxazepin-7-yl]-2-chloropyridin-3-yl}methanesulfonamide]"
10,≤ 100,"Cc1cc(-c2cnc3sc(N)nc3c2)cc2c1OCCN(c1ncnc3c1CC[C@H](C)C3)C2 [Compound 30, 6-{9-methyl-4-[(7S)-7-methyl-5,6,7,8-tetrahydroquinazolin-4-yl]-2,3,4,5-tetrahydro-1,4-benzoxazepin-7-yl}[1,3]thiazolo[5,4-b]pyridin-2-amine]"

# Second part, the compound before the results:
row,SMILES,IC50 [nM]
1,"Cc1cc(-c2cnc3sc(N)nc3c2)cc2c1OCCN(c1nc(N)nc(C)c1C(C)C)C2 [Compound 3, 6-{4-[2-amino-6-methyl-5-(1-methylethyl)pyrimidin-4-yl]-9-methyl-2,3,4,5-tetrahydro-1,4-benzoxazepin-7-yl}[1,3]thiazolo[5,4-b]pyridin-2-amine]",≤ 100
2,"Cc1cc(-c2cnc(Cl)c(NS(C)(=O)=O)c2)cc2c1OCCN(c1nc(N)nc(C)c1C(C)C)C2 [Compound 6, N-(5-{4-[2-amino-6-methyl-5-(1-methylethyl)pyrimidin-4-yl]-9-methyl-2,3,4,5-tetrahydro-1,4-benzoxazepin-7-yl}-2-chloropyridin-3-yl)methanesulfonamide]",≤ 100
3,"Cc1cc(-c2cnc3sc(N)nc3c2)cc2c1OCCN(c1nc(N)nc(C)c1C)C2 [Compound 7, 6-[4-(2-amino-5,6-dimethylpyrimidin-4-yl)-9-methyl-2,3,4,5-tetrahydro-1,4-benzoxazepin-7-yl][1,3]thiazolo[5,4-b]pyridin-2-amine]",100 to 500
4,"CCc1c(C)nc(N)nc1N1CCOc2c(C)cc(-c3cnc4sc(N)nc4c3)cc2C1 [Compound 8, 6-[4-(2-amino-5-ethyl-6-methylpyrimidin-4-yl)-9-methyl-2,3,4,5-tetrahydro-1,4-benzoxazepin-7-yl][1,3]thiazolo[5,4-b]pyridin-2-amine]",≤ 100
5,"C=Cc1c(C)nc(N)nc1N1CCOc2c(C)cc(-c3cnc4sc(N)nc4c3)cc2C1 [Compound 9, 6-[4-(2-amino-5-ethenyl-6-methylpyrimidin-4-yl)-9-methyl-2,3,4,5-tetrahydro-1,4-benzoxazepin-7-yl][1,3]thiazolo[5,4-b]pyridin-2-amine]",≤ 100
6,"Cc1cc(-c2cnc3sc(N)nc3c2)cc2c1OCCN(c1nc(N)ncc1C(F)(F)F)C2 [Compound 12, 6-{4-[2-amino-5-(trifluoromethyl)pyrimidin-4-yl]-9-methyl-2,3,4,5-tetrahydro-1,4-benzoxazepin-7-yl}[1,3]thiazolo[5,4-b]pyridin-2-amine]",≤ 100
7,"Cc1cc(-c2cnc3sc(N)nc3c2)cc2c1OCCN(c1ncc(C(F)(F)F)c(N)n1)C2 [Compound 13, 6-{4-[4-amino-5-(trifluoromethyl)pyrimidin-2-yl]-9-methyl-2,3,4,5-tetrahydro-1,4-benzoxazepin-7-yl}[1,3]thiazolo[5,4-b]pyridin-2-amine]",100 to 500
8,"COCCc1c(C)nc(N)nc1N1CCOc2c(C)cc(-c3cnc4sc(N)nc4c3)cc2C1 [Compound 16, 6-(4-{2-amino-6-methyl-5-[2-(methyloxy)ethyl]pyrimidin-4-yl}-9-methyl-2,3,4,5-tetrahydro-1,4-benzoxazepin-7-yl)[1,3]thiazolo[5,4-b]pyridin-2-amine]",≤ 100
9,"Cc1cc(-c2cncc(NS(C)(=O)=O)c2)cc2c1OCCN(c1nc(N)nc(C)c1C(C)C)C2 [Compound 18, N-(5-{4-[2-amino-6-methyl-5-(1-methylethyl)pyrimidin-4-yl]-9-methyl-2,3,4,5-tetrahydro-1,4-benzoxazepin-7-yl}pyridin-3-yl)methanesulfonamide]",100 to 500
10,"Cc1nc2c(c(N3CCOc4c(C)cc(-c5cnc6sc(N)nc6c5)cc4C3)n1)CC(C)(C)CC2 [Compound 20, 6-[9-methyl-4-(2,6,6-trimethyl-5,6,7,8-tetrahydroquinazolin-4-yl)-2,3,4,5-tetrahydro-1,4-benzoxazepin-7-yl][1,3]thiazolo[5,4-b]pyridin-2-amine]",≤ 100
11,"COc1ncc(-c2cc(C)c3c(c2)CN(c2nc(N)nc(C)c2C(C)C)CCO3)cc1NS(C)(=O)=O [Compound 21, N-[5-{4-[2-amino-6-methyl-5-(1-methylethyl)pyrimidin-4-yl]-9-methyl-2,3,4,5-tetrahydro-1,4-benzoxazepin-7-yl}-2-(methyloxy)pyridin-3-yl]methanesulfonamide]",≤ 100
12,"Cc1cc(-c2ccc(N)nc2)cc2c1OCCN(c1nc(N)nc(C)c1C(C)C)C2 [Compound 24, 4-[7-(6-aminopyridin-3-yl)-9-methyl-2,3-dihydro-1,4-benzoxazepin-4(5H)-yl]-6-methyl-5-(1-methylethyl)pyrimidin-2-amine]",100 to 500
13,"Cc1cc(-c2cnc3sc(N)nc3c2)cc2c1OCCN(c1nccc(N)n1)C2 [Compound 25, 6-[4-(4-aminopyrimidin-2-yl)-9-methyl-2,3,4,5-tetrahydro-1,4-benzoxazepin-7-yl][1,3]thiazolo[5,4-b]pyridin-2-amine]",100 to 500
14,"Cc1cc(-c2cnc3sc(N)nc3c2)cc2c1OCCN(c1ncc(C#N)c(N)n1)C2 [Compound 26, 4-amino-2-[7-(2-amino[1,3]thiazolo[5,4-b]pyridin-6-yl)-9-methyl-2,3-dihydro-1,4-benzoxazepin-4(5H)-yl]pyrimidine-5-carbonitrile]",100 to 500
15,"Cc1cc(-c2cnc3sc(N)nc3c2)cc2c1OCCN(c1ncc(C(N)=O)c(N)n1)C2 [Compound 27, 4-amino-2-[7-(2-amino[1,3]thiazolo[5,4-b]pyridin-6-yl)-9-methyl-2,3-dihydro-1,4-benzoxazepin-4(5H)-yl]pyrimidine-5-carboxamide]",100 to 500
16,"Cc1cc(-c2cnc3sc(N)nc3c2)cc2c1OCCN(c1nc(CN(C)C)nc(C)c1C(C)C)C2 [Compound 31, 6-(4-{2-[(dimethylamino)methyl]-6-methyl-5-(1-methylethyl)pyrimidin-4-yl}-9-methyl-2,3,4,5-tetrahydro-1,4-benzoxazepin-7-yl)[1,3]thiazolo[5,4-b]pyridin-2-amine]",≤ 100
